The target of assay [1] is T1, Ephrin type-B receptor 1 (Homo sapiens) (UniProt P54762).
T1 sequence (whole entry): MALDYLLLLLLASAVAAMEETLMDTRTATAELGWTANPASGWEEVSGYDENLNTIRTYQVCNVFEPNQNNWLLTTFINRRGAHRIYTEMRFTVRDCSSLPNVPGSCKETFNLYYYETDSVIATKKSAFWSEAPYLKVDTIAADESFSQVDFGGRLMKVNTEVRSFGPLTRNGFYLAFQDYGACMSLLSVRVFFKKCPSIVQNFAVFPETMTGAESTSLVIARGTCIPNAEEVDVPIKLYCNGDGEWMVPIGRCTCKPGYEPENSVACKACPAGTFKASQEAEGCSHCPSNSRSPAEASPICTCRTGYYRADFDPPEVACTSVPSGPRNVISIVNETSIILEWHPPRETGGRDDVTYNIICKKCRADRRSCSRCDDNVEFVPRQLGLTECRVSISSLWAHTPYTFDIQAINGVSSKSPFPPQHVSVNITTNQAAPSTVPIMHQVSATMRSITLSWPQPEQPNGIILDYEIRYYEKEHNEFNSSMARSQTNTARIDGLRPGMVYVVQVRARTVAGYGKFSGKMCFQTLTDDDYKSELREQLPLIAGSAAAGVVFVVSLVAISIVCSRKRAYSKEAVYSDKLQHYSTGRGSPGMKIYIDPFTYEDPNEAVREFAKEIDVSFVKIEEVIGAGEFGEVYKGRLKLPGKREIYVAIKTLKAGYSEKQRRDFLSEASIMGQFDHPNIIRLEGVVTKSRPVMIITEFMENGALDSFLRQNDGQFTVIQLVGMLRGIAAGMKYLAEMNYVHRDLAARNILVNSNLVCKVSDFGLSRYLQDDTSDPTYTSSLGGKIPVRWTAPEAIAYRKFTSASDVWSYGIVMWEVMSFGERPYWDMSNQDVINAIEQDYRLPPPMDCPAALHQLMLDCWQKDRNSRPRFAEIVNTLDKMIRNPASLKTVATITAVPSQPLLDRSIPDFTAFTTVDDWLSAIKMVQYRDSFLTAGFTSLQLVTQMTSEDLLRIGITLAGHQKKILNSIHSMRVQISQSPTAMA
In words: Selectivity interaction (KinomeScan (DiscoverX)) EUB0000655a EPHB1. Particulars: at 10 µM.

The target in assay [2] is T2, Histone-lysine N-methyltransferase SETD7 (Homo sapiens) (UniProt Q8WTS6).
T2 sequence (whole entry): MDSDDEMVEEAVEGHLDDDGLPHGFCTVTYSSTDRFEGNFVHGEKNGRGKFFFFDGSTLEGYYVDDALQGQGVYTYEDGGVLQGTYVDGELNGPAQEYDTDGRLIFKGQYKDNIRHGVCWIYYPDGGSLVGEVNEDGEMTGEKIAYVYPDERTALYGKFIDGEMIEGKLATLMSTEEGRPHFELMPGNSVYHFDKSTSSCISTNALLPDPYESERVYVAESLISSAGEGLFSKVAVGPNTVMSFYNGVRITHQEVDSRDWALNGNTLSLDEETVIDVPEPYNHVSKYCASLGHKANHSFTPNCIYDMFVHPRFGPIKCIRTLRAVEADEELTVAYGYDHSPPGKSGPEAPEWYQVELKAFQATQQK
Particulars: at 1 µM.

In assay [3] the target is T3, Mitogen-activated protein kinase kinase kinase 5 (Homo sapiens) (UniProt Q99683).
T3 sequence (whole entry): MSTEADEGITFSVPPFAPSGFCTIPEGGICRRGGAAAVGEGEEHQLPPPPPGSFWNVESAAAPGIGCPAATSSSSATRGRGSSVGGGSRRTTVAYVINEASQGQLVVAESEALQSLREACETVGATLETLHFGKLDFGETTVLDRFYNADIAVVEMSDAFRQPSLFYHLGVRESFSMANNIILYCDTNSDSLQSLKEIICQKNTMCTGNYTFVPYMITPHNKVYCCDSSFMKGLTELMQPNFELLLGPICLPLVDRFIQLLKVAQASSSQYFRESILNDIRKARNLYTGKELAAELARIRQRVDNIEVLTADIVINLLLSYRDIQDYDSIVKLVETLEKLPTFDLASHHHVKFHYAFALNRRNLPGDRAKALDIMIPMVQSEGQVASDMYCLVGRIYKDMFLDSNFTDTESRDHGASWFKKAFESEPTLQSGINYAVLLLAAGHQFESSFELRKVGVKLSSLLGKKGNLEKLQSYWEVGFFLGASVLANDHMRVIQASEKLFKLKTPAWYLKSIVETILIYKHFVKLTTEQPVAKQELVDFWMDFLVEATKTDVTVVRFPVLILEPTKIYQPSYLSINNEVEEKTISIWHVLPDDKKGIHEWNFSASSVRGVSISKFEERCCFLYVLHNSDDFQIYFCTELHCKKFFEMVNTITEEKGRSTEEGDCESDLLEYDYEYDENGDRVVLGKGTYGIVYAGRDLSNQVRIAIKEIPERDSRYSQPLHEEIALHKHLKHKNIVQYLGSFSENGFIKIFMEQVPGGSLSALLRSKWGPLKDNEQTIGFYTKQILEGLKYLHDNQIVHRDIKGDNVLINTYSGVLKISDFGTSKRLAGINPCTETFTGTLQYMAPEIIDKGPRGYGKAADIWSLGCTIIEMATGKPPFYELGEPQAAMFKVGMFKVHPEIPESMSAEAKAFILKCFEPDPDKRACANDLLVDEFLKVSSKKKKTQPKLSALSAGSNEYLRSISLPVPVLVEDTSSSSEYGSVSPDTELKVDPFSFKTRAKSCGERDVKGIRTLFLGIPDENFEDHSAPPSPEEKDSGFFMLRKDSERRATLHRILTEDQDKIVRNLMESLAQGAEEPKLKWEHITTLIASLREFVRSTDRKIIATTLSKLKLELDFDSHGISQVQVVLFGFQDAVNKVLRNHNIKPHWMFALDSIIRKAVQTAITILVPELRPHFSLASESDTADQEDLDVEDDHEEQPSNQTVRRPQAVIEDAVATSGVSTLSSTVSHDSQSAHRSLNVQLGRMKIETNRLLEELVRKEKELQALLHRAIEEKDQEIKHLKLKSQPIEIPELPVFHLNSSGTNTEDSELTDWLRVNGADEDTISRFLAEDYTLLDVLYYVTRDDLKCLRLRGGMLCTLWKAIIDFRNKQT
In words: Selectivity interaction (ActivX KiNativ screen (kinase selectivity in THP-1 cell lysates)) EUB0000639a MAP3K5. In kind it is subcellular. Particulars: lysate, at 0.04 µM.

Compound `CN(C)CCOc1ccc(-c2nc(-c3ccncc3)c(-c3ccc4c(c3)CC/C4=N\O)[nH]2)cc1` showed a % of control in assay [1] of 100%.
`CNCCN1CCC(c2cc(CN(C)C(=O)c3cccc(Oc4ccccc4)c3)ccn2)CC1` came in with a % activity in assay [2] of more than 90%.
For the compound `CC[C@@H]1[C@H](F)C(=O)N[C@@H]1COc1nccc2cc(C(N)=O)c(OC)cc12` [ZIMLOVISERTIB], the % of inhibition in assay [3] was -7.7%.

Values taken from ChEMBL document CHEMBL5465560, “Selectivity Literature for EUbOPEN Chemogenomic Library” (2024).
